Results taken from patent publication US8883782B2, “Spiro-tetracyclic ring compounds as beta-secretase modulators and methods of use” (Amgen Inc., priority 2010, dated 2014).
pIC50: −log10 of the molar value. Where two headings read alike, the source gives them in different places.

What was measured:
[1] = test system: Abeta 40 in cerebrospinal fluid (CSF) and brain; assay: In vivo inhibition of beta-secretase (Abeta 40 reduction in CSF and brain); conditions: rat, after 4 hrs; for inhibition in vivo at 10 mg/kg: Abeta 40, 10 mg/kg (10 mpk); for inhibition in vivo at 3 mg/kg: Abeta 40, 3 mpk
Text: In Vivo Inhibition of Beta-Secretase
Several animal models, including mouse, rat, dog, and monkey, may be used to screen for inhibition of beta-secretase activity in vivo following administration of a test compound sample. Animals used in this invention can be wild type, transgenic, or gene knockout animals. […] A separate group of animals receive 2% hydroxypropyl methylcellulose, 1% Tween80 alone, containing no test compound, and serve as a vehicle-control group. At the end of the test period, animals are sacrificed and brain tissues, plasma or cerebrospinal fluid are collected. […] Homogenates are centrifuged at 355,000 g, 4° C. for 30 minutes. CSF or brain supernatants are then analyzed for the presence of A-beta peptide by specific sandwich ELISA assays based on ECL (Electrochemiluminescence) technology. For example, rat Abeta40 is measured using biotinylated-4G8 (Signet) as a capture antibody and Fab40 (an in-house antibody specific to the C-terminal of Abeta40) as a detection antibody.
Actual vehicles used: Oral: 2% HPMC, 1% Tween80, pH 2.2

[2] = biological target: Beta Secretase enzyme (BACE) (Homo sapiens, UniProt P56817); assay: In vitro enzymatic BACE FRET (fluorescence resonance energy transfer) assay; type: biochemical; conditions: for IC50: BACE 1 FRET assay (uM); for pIC50: average IC50, enzyme assay, read-out: BACE 1 FRET assay
Chain of Beta Secretase enzyme (BACE) (P56817 46-501, species assumed): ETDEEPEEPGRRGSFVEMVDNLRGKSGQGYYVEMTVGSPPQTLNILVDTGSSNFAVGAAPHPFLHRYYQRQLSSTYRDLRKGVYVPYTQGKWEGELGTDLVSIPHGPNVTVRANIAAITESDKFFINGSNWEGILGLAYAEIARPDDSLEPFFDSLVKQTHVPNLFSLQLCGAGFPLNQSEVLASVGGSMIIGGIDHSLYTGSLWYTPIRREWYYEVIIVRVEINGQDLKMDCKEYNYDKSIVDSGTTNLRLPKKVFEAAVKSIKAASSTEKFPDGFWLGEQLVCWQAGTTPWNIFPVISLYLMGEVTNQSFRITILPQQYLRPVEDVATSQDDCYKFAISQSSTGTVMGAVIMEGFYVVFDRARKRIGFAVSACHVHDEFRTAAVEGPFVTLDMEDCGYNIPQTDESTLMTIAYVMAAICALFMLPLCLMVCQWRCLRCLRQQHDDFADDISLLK
Outline: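 Run in 0.05 M acetate pH 4.2 with 10% DMSO final and 100 uM genapol; started by adding 50 nM FRET peptide substrate (fluorophore and quencher flanking the cleavage site), incubated one hour, then stopped with Tris to neutral pH before reading fluorescence.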

[3] = test system: Aβ40 in conditioned medium of cells stably expressing Amyloid Precursor Protein (APP); assay: In vitro BACE cell-based assay (Aβ40 in conditioned medium, sandwich ELISA); conditions: for pIC50: read-out: HEK cell assay
Outline: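 Step two: 10-point compound titration added, starting 100 μM or 10 μM, 0.1% DMSO. Step three: medium Aβ40 measured by ELISA, capture 3 h and detection 2 h at 4° C, TRF read.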

[4] = CSF, read-out: CSF A-beta reduction % at 10 mg/kg
[5] = brain, read-out: Brain A-beta reduction % at 10 mg/kg
[6] = Homo sapiens, HEK293, average IC50, HEK cells
[7] = Homo sapiens, HEK293, average IC50

Compound | pIC50 [2] | pIC50 [3, 7] | inhibition in vivo at 10 mg/kg [1, 4] [%] | inhibition in vivo at 10 mg/kg [1, 5] [%] | pIC50 ([3]; average IC50) | also measured
NC1=N[C@@]2(CO1)c1cc(-c3cccnc3F)c(F)cc1Oc1c(F)cc(C3=CCOCC3)cc12 (single isomer, unassigned) [Example 867] | – | – | 56 | 39 | – | IC50 [2]: 0.0003 µM; IC50 ([3]; Homo sapiens, HEK293, read-out: HEK cell assay (uM), average IC50, HEK cells): 0.005 µM
NC1=N[C@@]2(CO1)c1cc(-c3c(F)ccnc3F)ccc1Oc1cnc(C3=CCOCC3)cc12 [Example 89, (5S)-7-(2,4-difluoro-3-pyridinyl)-3-(3,6-dihydro-2H-pyran-4-yl)spiro[chromeno[2,3-c]pyridine-5,4′-[1,3]oxazol]-2′-amine] | – | – | 80 | 69 | – | IC50 [2]: 0.0007 µM; IC50 ([3]; Homo sapiens, HEK293, read-out: HEK cell assay (uM), average IC50, HEK cell assay): 0.0047 µM
NC1=N[C@@]2(CS1)c1cc(-c3cccnc3F)ccc1Oc1ncc(C3=CCOCC3)cc12 [Example 97, (S)-3-(3,6-dihydro-2H-pyran-4-yl)-7-(2-fluoropyridin-3-yl)-5′H-spiro[chromeno[2,3-b]pyridine-5,4′-thiazol]-2′-amine] | 9.30 | – | 46 | 28 | – | pIC50 [3, 6]: 8.12
CC1(C#Cc2cnc3c(c2)[C@]2(COC(N)=N2)c2cc(-c4cccc(C#N)c4)ccc2O3)COC1 [Example 127, (S)-3-(2′-amino-3-((3-methyloxetan-3-yl)ethynyl)-5′H-spiro[chromeno[2,3-b]pyridine-5,4′-oxazole]-7-yl)benzonitrile] | 8.96 | 8.30 | 61 | 45 | – | –
NC1=N[C@@]2(CO1)c1cc(-c3cccnc3F)ccc1Oc1c(F)cc(-c3ncccn3)cc12 [Example 128, (S)-4′-fluoro-7′-(2-fluoropyridin-3-yl)-2′-(pyrimidin-2-yl)-5H-spiro[oxazole-4,9′-xanthen]-2-amine] | 8.96 | 8.09 | 75 | 57 | – | –
Cc1cnc(F)c(-c2ccc3c(c2)[C@@]2(COC(N)=N2)c2cc(N4CCOCC4)cc(F)c2O3)c1 [Example 132, (S)-4′-fluoro-7′-(2-fluoro-5-methylpyridin-3-yl)-2′-morpholino-5H-spiro[oxazole-4,9′-xanthen]-2-amine] | 8.82 | 8.22 | 54 | 45 | – | –
CC(C)(C)C#Cc1cnc2c(c1)[C@]1(COC(N)=N1)c1cc(-c3cncnc3)c(F)cc1O2 [Example 339, (S)-3-(3,3-dimethylbut-1-yn-1-yl)-8-fluoro-7-(pyrimidin-5-yl)-5′H-spiro[chromeno[2,3-b]pyridine-5,4′-oxazol]-2′-amine] | – | – | 56 | 29 | 7.84 | –
NC1=N[C@@]2(CO1)c1cc(-c3cccnc3F)ccc1Oc1c2cc(C2=CCCOC2)nc1F [Example 688, (5S)-3-(5,6-dihydro-2H-pyran-3-yl)-1-fluoro-7-(2-fluoro-3-pyridinyl)spiro[chromeno[2,3-c]pyridine-5,4′-[1,3]oxazol]-2′-amine] | – | – | – | – | – | inhibition in vivo at 3 mg/kg ([1]; CSF, read-out: CSF A-beta reduction % at 3 mpk): 74%; inhibition in vivo at 3 mg/kg ([1]; brain, read-out: Brain A-beta reduction % at 3 mpk): 75%; pIC50 [3, 6]: 8.30
(4S)-4′-fluoro-7′-(2-fluoro-3-pyridinyl)-2′-((2S)-tetrahydro-2H-pyran-2-yl)spiro[1,3-oxazole-4,9′-xanthen]-2-amine [Example 219] | 9.05 | – | – | – | 8.21 | –
(4S)-4′-fluoro-7′-(2-fluoro-3-pyridinyl)-2′-((3R)-3-methyl-1-pyrrolidinyl)spiro[1,3-oxazole-4,9′-xanthen]-2-amine, (4S)-4′-fluoro-7′-(2-fluoro-3-pyridinyl)-2′-((3S)-3-methyl-1-pyrrolidinyl)spiro[1,3-oxazole-4,9′-xanthen]-2-amine [Example 1055] | 9.40 | – | – | – | 7.48 | –
(5R)-3-bromo-7-iodospiro[chromeno[2,3-b]pyridine-5,4′-[1,3]oxazol]-2′-amine, (5S)-3-bromo-7-iodospiro[chromeno[2,3-b]pyridine-5,4′-[1,3]oxazol]-2′-amine [Example 762] | 8.40 | – | – | – | 7.07 | –
(5R)-7-(2,4-difluoro-3-pyridinyl)-3-(2-fluoro-4-pyridinyl)spiro[chromeno[2,3-c]pyridine-5,4′-[1,3]thiazol]-2′-amine, (5S)-7-(2,4-difluoro-3-pyridinyl)-3-(2-fluoro-4-pyridinyl)spiro[chromeno[2,3-c]pyridine-5,4′-[1,3]thiazol]-2′-amine [Example 1019] | 9.15 | – | – | – | 7.48 | –
(5R)-7-bromo-3-fluoro-1-methoxyspiro[chromeno[2,3-c]pyridine-5,4′-[1,3]oxazol]-2′-amine, (5S)-7-bromo-3-fluoro-1-methoxyspiro[chromeno[2,3-c]pyridine-5,4′-[1,3]oxazol]-2′-amine [Example 846] | 8.85 | – | – | – | 7.85 | –
(6R)-4-((4S)-2-amino-4′-fluoro-7′-(2-fluoro-3-pyridinyl)spiro[1,3-oxazole-4,9′-xanthen]-2′-yl)-6-methyl-5,6-dihydro-2H-pyran-2-one, (6S)-4-((4S)-2-amino-4′-fluoro-7′-(2-fluoro-3-pyridinyl)spiro[1,3-oxazole-4,9′-xanthen]-2′-yl)-6-methyl-5,6-dihydro-2H-pyran-2-one [Example 803] | 9.10 | – | – | – | 7.82 | –

Continued, in another order:

pIC50 [2] | pIC50 [3, 7] | Compound | inhibition in vivo at 10 mg/kg [1, 4] [%] | inhibition in vivo at 10 mg/kg [1, 5] [%] | pIC50 ([3]; average IC50) | also measured
9.30 | – | NC1=N[C@@]2(CO1)c1cc(-c3cccnc3F)c(F)cc1Oc1c(F)cc(N3CCOCC3)cc12 (single isomer, unassigned) [Example 869] | 61 | 44 | – | pIC50 [3, 6]: 8.00
9.70 | 7.89 | NC1=N[C@@]2(CS1)c1cc(-c3cccnc3F)ccc1Oc1c2cc(-c2ccnc(F)c2)nc1F (single isomer, unassigned) [Example 996] | 55 | 43 | – | –
9.00 | – | N#Cc1cccc(-c2ccc3c(c2)[C@@]2(COC(N)=N2)c2cc(N4CCC(F)(F)C4)ncc2O3)c1 [Example 134, (S)-3-(2′-amino-3-(3,3-difluoropyrolidin-1-yl)-5′H-spiro[chromeno[2,3-c]pyridine-5,4′-oxazole]-7-yl)benzonitrile] | 61 | 45 | – | pIC50 [3, 6]: 7.92
8.89 | 8.00 | CC1(C)C=C(c2cc3c(cn2)Oc2ccc(-c4cncc(F)c4)cc2[C@@]32COC(N)=N2)CCO1 [Example 135, (S)-3-(6,6-dimethyl-3,6-dihydro-2H-pyran-4-yl)-7-(5-fluoropyridin-3-yl)-5′H-spiro[chromeno[2,3-c]pyridine-5,4′-oxazol]-2′-amine] | 61 | 44 | – | –
8.96 | – | NC1=N[C@@]2(CO1)c1cc(-c3cccnc3)ccc1Oc1cnc(N3CCC(F)(F)C3)cc12 [Example 138, (S)-3-(3,3-difluoropyrrolidin-1-yl)-7-(pyridin-3-yl)-5′H-spiro[chromeno[2,3-c]pyridine-5,4′-oxazol]-2′-amine] | 67 | 48 | – | pIC50 [3, 6]: 8.28
9.52 | 8.80 | NC1=N[C@@]2(CO1)c1cc(-c3cccnc3F)ccc1Oc1c(F)cc(N3CC4CCC(C3)O4)cc12 [Example 225, (4S)-2′-(8-oxa-3-azabicyclo[3.2.1]octan-3-yl)-4′-fluoro-7′-(2-fluoropyridin-3-yl)-5H-spiro[oxazole-4,9′-xanthen]-2-amine] | 64 | 47 | – | –
8.41 | 7.57 | Cc1cnc(-c2cc(F)c3c(c2)[C@]2(COC(N)=N2)c2cc(-c4cccnc4F)ccc2O3)nc1 [Example 226, (S)-4′-fluoro-7′-(2-fluoropyridin-3-yl)-2′-(5-methylpyrimidin-2-yl)-5H-spiro[oxazole-4,9′-xanthen]-2-amine] | 31 | 19 | – | –
– | 7.64 | NC1=N[C@@]2(CS1)c1cc(-c3cccnc3F)ccc1Oc1cnc(-c3ccnc(F)c3)cc12 [Example 1000, (S)-7-(2-fluoropyridin-3-yl)-3-(2-fluoropyridin-4-yl)-5′H-spiro[chromeno[2,3-c]pyridine-5,4′-thiazol]-2′-amine] | – | – | – | CSF A-beta reduction % at 30 mpk ([1]; CSF, Abeta 40, 30 mpk): 63% at 30 mpk; Brain A-beta reduction % at 30 mpk ([1]; brain, Abeta 40, 30 mpk): 60% at 30 mpk
